Like-named read-outs stand apart in the source and are kept apart here.

The term DC50 denotes the concentration at which degradation of the target reaches its halfway point.

For data set [1], the target named is T1, BCL-xL proteins (Homo sapiens, UniProt Q07817).
T1 construct: degradation effect on the BCL-xL proteins in MOLT-4 cells; host or cells: MOLT-4
The data set can be described thus: BCL-xL degradation activity in MOLT-4 cells (western blot, 16 h). The class given is cell-based. The procedure:
MOLT-4 cells are acute lymphoblastic leukemia cell lines in humans. The cells were purchased from ATCC. Culture conditions: RPMI-1640+10% FBS+1% penicillin-streptomycin solution. The cells were cultured in a 37° C., 5% CO2 incubator. The cells were plated in a 12-well plate, with 2×10^5 cells/well. After plating, compounds at different concentrations were added and cultured in a 37° C., 5% CO2 incubator for 16 h. After the completion of culture, the cells were harvested and RIPA lysis buffer (beyotime, Cat. P0013B) was added. The cells were lysed on ice for 15 minutes and centrifuged at 12000 rpm at 4° C. for 10 minutes. The supernatant protein samples were collected and the protein was quantified by using the BCA kit (Beyotime, Cat. P0009). Then the protein was diluted to 0.8 mg/mL. The expressions of BCL-xL (CST, Cat. 2764S), BCL-2 (CST, Cat. 15071S) and the internal reference β-actin (CST, Cat. 3700S) were detected using a fully automated western blot quantitative analyzer (Proteinsimple). The expression level of BCL-xL or BCL-2 relative to the internal reference was calculated by using Compass software, and the DC50 value was calculated by using GraphPad Prism 8.0 software according to formula (1), wherein the Proteinadministration denoted the relative expression level of BCL-xL or BCL-2 in administration groups at different doses, and the Proteinvehicle denoted the relative expression level of BCL-xL or BCL-2 in the vehicle control group.
Protein %=Proteinadministration/Proteinvehicle×100% formula (1)
(A western blot detects proteins with antibodies after separation by electrophoresis.)

Data set [2] concerns platelet (PLT). The data set can be described thus: Effect on platelet (PLT) after single intravenous injection. The class given is in vivo, SD rats. The procedure:
Experimental animal: 78 SD rats, with an equal number of males and females, male (♂): 290-380 g, female (♀): 220-290 g, 8-10 weeks old, purchased from Zhejiang Vital River Laboratory Animal Technology Co., Ltd.
Experimental protocol: a clear solution was formulated using a vehicle ([…]). The animals were dosed via tail vein a single time (administration volume: 20 mL/kg; bolus injection period: about 4 minutes; recovery period: 7 days).

Data set [3] concerns MOLT-4 cells. Briefly: Cell proliferation activity in MOLT-4 cells (72 h, cell viability luminescence). The class given is cell-based, human. To be noted: read-out: IC50 for the inhibition of MOLT-4 cell proliferation. Summed up:
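Human acute lymphoblastic leukemia cells were seeded at 5×10^3 cells/well in RPMI-1640 with 10% FBS. They were treated with serially varied compound concentrations for 72 h at 37° C., 5% CO2. A luminescent viability reagent was used for read-out. IC50 was derived relative to vehicle control; maximum inhibition was the inhibition rate at the highest concentration.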

T1 sequence (Q07817 whole entry): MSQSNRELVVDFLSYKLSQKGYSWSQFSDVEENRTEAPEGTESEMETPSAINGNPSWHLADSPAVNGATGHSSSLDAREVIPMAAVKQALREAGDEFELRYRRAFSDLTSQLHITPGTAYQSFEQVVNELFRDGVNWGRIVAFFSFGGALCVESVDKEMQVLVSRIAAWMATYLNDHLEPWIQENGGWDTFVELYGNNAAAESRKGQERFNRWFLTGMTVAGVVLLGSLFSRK

In turn, `Cc1ncsc1-c1ccc([C@H](C)NC(=O)[C@@H]2C[C@@H](O)CN2C(=O)[C@@H](NC(=O)CCCCCC(=O)N2CCN(CC[C@H](CSc3ccccc3)Nc3ccc(S(=O)(=O)NC(=O)c4ccc(N5CCN(CC6=C(c7ccc(Cl)cc7)CCC(C)(C)C6)CC5)cc4)cc3S(=O)(=O)C(F)(F)F)CC2)C(C)(C)C)cc1` [Control compound, DT2216, reference compound] had a DC50 in data set [1] of over 0.02 µM. Also, the “Effect on PLT (↓ decrease)” value in data set [2] (SD rats ♀, 6 mg/kg single i.v., 4 h) is “↓24%”; in data set [2] (SD rats ♀, 6 mg/kg single i.v., D2) it was “↓78%”; in data set [2] (SD rats ♀, 20 mg/kg single i.v., 4 h), “↓89%”; in data set [2] (SD rats ♀, 20 mg/kg single i.v., D2) it was “↓96%”; in data set [2] (SD rats ♀, 60 mg/kg single i.v., D8), “↓87%”; in data set [2] (SD rats ♂, 6 mg/kg single i.v., 4 h), “↓26%”. Also, the “Effect on PLT (↓ decrease)” value in data set [2] (SD rats ♂, 6 mg/kg single i.v., D2) was “↓69%”; in data set [2] (SD rats ♂, 20 mg/kg single i.v., 4 h) it was “↓81%”; in data set [2] (SD rats ♂, 20 mg/kg single i.v., D2), “↓91%”; in data set [2] (SD rats ♂, 60 mg/kg single i.v., D8) it was “↓73%”.

As for `Cc1ncsc1-c1ccc([C@H](C)NC(=O)[C@@H]2C[C@@H](O)CN2C(=O)[C@@H](NC(=O)CCCCCC(=O)N2C[C@H]3C[C@@H]2CN3CC[C@H](CSc2ccccc2)Nc2ccc(S(=O)(=O)NC(=O)c3ccc(N4CCN(CC5=C(c6ccc(Cl)cc6)CCC6(CC6)C5)CC4)cc3)cc2S(=O)(=O)C(F)(F)F)C(C)(C)C)cc1` [Compound 19, (2S,4R)-1-((S)-2-(7-((1R,4R)-5-((R)-3-((4-(N-(4-(4-((6-(4-chlorophenyl)spiro[2.5]oct-5-en-5-yl)methyl)piperazin-1-yl)benzoyl)sulfamoyl)-2-((trifluoromethyl)sulfonyl)phenyl)amino)-4-(phenylthio)butyl)-2,5-diazabicyclo[2.2.1]heptan-2-yl)-7-oxoheptanamido)-3,3-dimethylbutanoyl)-4-hydroxy-N—((S)-1-(4-(4-methylthiazol-5-yl)phenyl)ethyl)pyrrolidine-2-carboxamide], in data set [1], half-maximal degradation (DC50) was put at 0.0107 µM. In addition, the IC50 in data set [3] (Homo sapiens) is under 0.5 µM.

Molecule `Cc1ncsc1-c1ccc([C@H](C)NC(=O)[C@@H]2C[C@@H](O)CN2C(=O)[C@@H](NC(=O)CCCCCC(=O)N2C[C@H]3CN(CC[C@H](CSc4ccccc4)Nc4ccc(S(=O)(=O)NC(=O)c5ccc(N6CCN(CC7=C(c8ccc(Cl)cc8F)CCC(C)(C)C7)CC6)cc5)cc4S(=O)(=O)C(F)(F)F)C[C@H]3C2)C(C)(C)C)cc1` (relative stereo) [Compound 14, cis-(2S,4R)-1-((S)-2-(7-(5-((R)-3-((4-(N-(4-(4-((4′-chloro-2′-fluoro-4,4-dimethyl-3,4,5,6-tetrahydro-[1,1′-biphenyl]-2-yl)methyl)piperazin-1-yl)benzoyl)sulfamoyl)-2-((trifluoromethyl)sulfonyl)phenyl)amino)-4-(phenylthio)butyl)hexahydropyrrolo[3,4-c]pyrrol-2(1H)-yl)-7-oxoheptanamido)-3,3-dimethylbutanoyl)-4-hydroxy-N—((S)-1-(4-(4-methylthiazol-5-yl)phenyl)ethyl) pyrrolidine-2-carboxamide] gave a DC50 in data set [1] of 0.0081 µM. In data set [3], the IC50 is under 0.5 µM.

`Cc1ncsc1-c1ccc([C@H](C)NC(=O)[C@@H]2C[C@@H](O)CN2C(=O)[C@@H](NC(=O)CCCCCC(=O)N2C[C@H]3C[C@@H]2CN3CC[C@H](CSc2ccccc2)Nc2ccc(S(=O)(=O)NC(=O)c3ccc(N4CCN(CC5=C(c6ccc(Cl)cc6)CCC(C)(C)C5)CC4)cc3)cc2S(=O)(=O)C(F)(F)F)C(C)(C)C)cc1` [Compound 10, (2S,4R)-1-((S)-2-(7-((1R,4R)-5-((R)-3-((4-(N-(4-(4-((4′-chloro-4,4-dimethyl-3,4,5,6-tetrahydro-[1,1′-biphenyl]-2-yl)methyl)piperazin-1-yl)benzoyl)sulfamoyl)-2-((trifluoromethyl)sulfonyl)phenyl)amino)-4-(phenylthio)butyl)-2,5-diazabicyclo[2.2.1]heptan-2-yl)-7-oxoheptanamido)-3,3-dimethylbutanoyl)-4-hydroxy-N—((S)-1-(4-(4-methylthiazol-5-yl)phenyl)ethyl)pyrrolidine-2-carboxamide]: the DC50 in data set [1] was found to be 0.0037 µM. Moreover, in data set [3] (Homo sapiens), the IC50 was under 0.5 µM.

Consider `Cc1ncsc1-c1ccc([C@H](C)NC(=O)[C@@H]2C[C@@H](O)CN2C(=O)[C@@H](NC(=O)CCCCCC(=O)N2CCN(CC[C@H](CSc3ccccc3)Nc3ccc(S(=O)(=O)NC(=O)c4ccc(N5CCN(CC6=C(c7ccc(Cl)cc7)CCC7(CC7)C6)CC5)cc4)cc3S(=O)(=O)C(F)(F)F)CC2)C(C)(C)C)cc1` [Compound 11, (2S,4R)-1-((S)-2-(7-(4-((R)-3-((4-(N-(4-(4-((6-(4-chlorophenyl)spiro[2.5]oct-5-en-5-yl)methyl)piperazin-1-yl)benzoyl)sulfamoyl)-2-((trifluoromethyl)sulfonyl)phenyl)amino)-4-(phenylthio)butyl)piperazin-1-yl)-7-oxoheptanamido)-3,3-dimethylbutanoyl)-4-hydroxy-N—((S)-1-(4-(4-methylthiazol-5-yl)phenyl)ethyl)pyrrolidine-2-carboxamide], for which half-maximal degradation in data set [1] (DC50) was put at 0.0053 µM. In addition, the IC50 in data set [3] (Homo sapiens) was under 0.5 µM.

Values taken from patent US20240408085A1, “COMPOUND FOR DEGRADATION OF BCL-2 FAMILY PROTEINS AND MEDICAL APPLICATION THEREOF” (XIZANG HAISCO PHARMACEUTICAL CO., LTD., priority 2021, published 2024).
